Where a SMILES comes first, the peptide text is derived from it. Bridges are numbered along the chain shown (N, C = ends). [ ]: non-standard residue; d: D form. ξ: configuration not given here. Trp(1-CH2COOH) = N[C@@H](Cc1cn(CC(=O)O)c2ccccc12)C(=O)O; Phe(3,4,5-F3) = N[C@@H](Cc1cc(F)c(F)c(F)c1)C(=O)O; Trp(5-Cl) = N[C@@H](Cc1c[nH]c2ccc(Cl)cc12)C(=O)O; Phe(3,4-F2) = N[C@@H](Cc1ccc(F)c(F)c1)C(=O)O; NMePhe(4-Me) = CN[C@@H](Cc1ccc(C)cc1)C(=O)O; Phe(4-F) = N[C@@H](Cc1ccc(F)cc1)C(=O)O; d(cisHyp) = O=C(O)[C@H]1C[C@@H](O)CN1; Hyp = O=C(O)[C@@H]1C[C@@H](O)CN1; NMeF = CN[C@@H](Cc1ccccc1)C(=O)O; dNMeF = CN[C@H](Cc1ccccc1)C(=O)O; dHyp = O=C(O)[C@H]1C[C@H](O)CN1; NMeNle = CCCC[C@H](NC)C(=O)O; dNle = CCCC[C@@H](N)C(=O)O; hSer = N[C@@H](CCO)C(=O)O; NMeA = CN[C@@H](C)C(=O)O; Orn = NCCC[C@H](N)C(=O)O; Dab = NCC[C@H](N)C(=O)O; Dap = NC[C@H](N)C(=O)O; ξP = O=C(O)C1CCCN1; ξC = NC(CS)C(=O)O; Sar = CNCC(=O)O

T1 sequence (Q9NZQ7 with tags, fused parts or gaps): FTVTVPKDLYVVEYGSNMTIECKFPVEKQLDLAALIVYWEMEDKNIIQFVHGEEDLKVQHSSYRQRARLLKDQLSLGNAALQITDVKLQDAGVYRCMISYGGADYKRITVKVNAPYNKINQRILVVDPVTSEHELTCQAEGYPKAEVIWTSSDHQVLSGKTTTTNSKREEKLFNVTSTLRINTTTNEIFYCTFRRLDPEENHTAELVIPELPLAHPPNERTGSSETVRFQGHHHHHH

The first experiment has as its target T1, Human PD-L1/PD-1 (Homo sapiens, UniProt Q9NZQ7).
T1 construct: TVMV protease cleavage site (C); made in house; host or cells: HEK293T cells
Description: HTRF Human PD-L1/PD-1 binding assay (PD-1-Ig/PD-L1-His). Particulars: PD-L1-His 10 nM, PD-1-Ig 20 nM; class symbol; read-out: HTRF Human PD-L1/PD-1 Binding Assay IC50 Range. Summed up: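 Competition of macrocyclic peptides for PD-1/PD-L1 binding measured by HTRF in dPBS containing 0.1% BSA and 0.05% Tween-20. Compound and PD-L1-His (10 nM final) incubated 15 min before PD-1-Ig (20 nM final) and a further 15 min.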
(In general: TR-FRET usually uses a lanthanide donor and a delayed reading to cut background.)
In the case of `CCCC[C@H]1C(=O)N(C)[C@@H](CCCC)C(=O)N[C@@H](CC(C)C)C(=O)N[C@H](C(=O)NCC(N)=O)CSCC(=O)N[C@@H](Cc2ccc(O)cc2)C(=O)N(C)[C@@H](C)C(=O)N[C@@H](CC(N)=O)C(=O)N2CCC[C@H]2C(=O)N[C@@H](Cc2cnc[nH]2)C(=O)N[C@@H](CCC(N)=O)C(=O)N2C[C@H](O)C[C@H]2C(=O)N[C@@H](Cc2c[nH]c3ccccc23)C(=O)N[C@@H](CO)C(=O)N[C@@H](Cc2cn(CC(=O)O)c3ccccc23)C(=O)N1C` [Example 6176] ({CH2CO}-Y[NMeA]NPHQ[Hyp]WS[Trp(1-CH2COOH)][NMeNle][NMeNle]LCG-NH2; thioether N-14), the IC50 lay within 0.01 to 0.0999 µM.
With `CCCC[C@H]1C(=O)N[C@@H](CC(N)=O)C(=O)N2CCC[C@H]2C(=O)N[C@@H](CO)C(=O)N[C@@H](CCO)C(=O)N2C[C@H](O)C[C@H]2C(=O)N[C@@H](Cc2c[nH]c3ccccc23)C(=O)N[C@@H](CN)C(=O)N[C@@H](Cc2c[nH]c3ccccc23)C(=O)N(C)[C@@H](C)C(=O)N(C)CC(=O)N[C@@H](CCCNC(=N)N)C(=O)NC(C(=O)NCC(N)=O)CSCC(=O)N[C@@H](Cc2ccc(O)cc2)C(=O)N1C` (stereo partly drawn) [Example 10205] ({CH2CO}-Y[NMeNle]NPS[hSer][Hyp]W[Dap]W[NMeA][Sar]R[ξC]G-NH2; thioether N-14), the IC50 is 1 to 10 µM.
On the same count and under the same terms, the result for `CCCC[C@H]1C(=O)N[C@@H](CC(N)=O)C(=O)N2CCC[C@H]2C(=O)N[C@@H](CO)C(=O)N[C@@H](CCO)C(=O)N2C[C@H](O)C[C@H]2C(=O)N[C@@H](Cc2c[nH]c3ccccc23)C(=O)N[C@@H](CCO)C(=O)N[C@@H](Cc2c[nH]c3ccccc23)C(=O)N(C)[C@@H](C)C(=O)N(C)[C@@H](C)C(=O)N[C@@H](CCCCN)C(=O)NC(C(=O)NCC(N)=O)CSCC(=O)N[C@@H](Cc2ccc(O)cc2)C(=O)N1C` (stereo partly drawn) [Example 10217] ({CH2CO}-Y[NMeNle]NPS[hSer][Hyp]W[hSer]W[NMeA][NMeA]K[ξC]G-NH2; thioether N-14) reads 1 to 10 µM.
Same read-out and setting: as for `CCCC[C@H]1C(=O)N2C[C@H](O)C[C@@H]2C(=O)N[C@@H](CC(=O)O)C(=O)N[C@@H](C(C)C)C(=O)N(C)[C@H](Cc2ccccc2)C(=O)N[C@@H](CCCN)C(=O)N2C[C@H](O)C[C@@H]2C(=O)N[C@@H](Cc2c[nH]c3ccccc23)C(=O)N[C@@H](Cc2ccc(O)cc2)C(=O)N[C@@H](CC(C)C)C(=O)N[C@H](C(=O)NCC(N)=O)CSCC(=O)N[C@@H](Cc2ccc(F)c(F)c2)C(=O)N(C)[C@@H](Cc2ccccc2)C(=O)N1C` [Example 9297] ({CH2CO}-[Phe(3,4-F2)][NMeF][NMeNle][d(cisHyp)]DV[dNMeF][Orn][d(cisHyp)]WYLCG-NH2; thioether N-13), the figure is 0.001 to 0.0099 µM.
Take `CCCC[C@H]1C(=O)N2C[C@H](O)C[C@@H]2C(=O)N[C@@H](CC(=O)O)C(=O)N[C@@H](C(C)C)C(=O)N(C)[C@@H](Cc2ccccc2)C(=O)N[C@@H](CCC(=O)O)C(=O)N2CCC[C@@H]2C(=O)N[C@@H](Cc2c[nH]c3ccccc23)C(=O)N[C@@H](Cc2ccc(O)cc2)C(=O)N[C@@H](CCOC)C(=O)N[C@H](C(=O)NCC(N)=O)CSCC(=O)N[C@@H](Cc2cc(F)c(F)c(F)c2)C(=O)N(C)[C@@H](Cc2ccccc2)C(=O)N1C` [Example 10193] ({CH2CO}-[Phe(3,4,5-F3)][NMeF][NMeNle][d(cisHyp)]DV[NMeF]E[dP]WY[hSer](Me)CG-NH2; thioether N-13): the IC50 was in the range of 0.001 to 0.0099 µM.
Still for that read-out and setting: as for `CCCC[C@H]1C(=O)N2C[C@@H](O)C[C@@H]2C(=O)N[C@@H](CC(=O)O)C(=O)N[C@@H](C(C)C)C(=O)N(C)[C@@H](Cc2ccccc2)C(=O)N[C@@H](CCC(=O)O)C(=O)N2C[C@@H](O)C[C@@H]2C(=O)N[C@@H](Cc2c[nH]c3ccccc23)C(=O)N[C@@H](Cc2ccc(O)cc2)C(=O)N[C@@H](CCCN)C(=O)N[C@H](C(=O)NCC(N)=O)CSCC(=O)N[C@@H](Cc2ccc(F)c(F)c2)C(=O)N(C)[C@@H](Cc2ccccc2)C(=O)N1C` [Example 9278] ({CH2CO}-[Phe(3,4-F2)][NMeF][NMeNle][dHyp]DV[NMeF]E[dHyp]WY[Orn]CG-NH2; thioether N-13), the figure is 0.001 to 0.0099 µM; as for `CCCC[C@H]1NC(=O)[C@H](Cc2c[nH]c3ccccc23)NC(=O)[C@H](CO)NC(=O)[C@H](Cc2c[nH]c3ccccc23)NC(=O)[C@@H]2C[C@@H](O)CN2C(=O)[C@H](CCCN)NC(=O)[C@H](Cc2cnc[nH]2)NC(=O)[C@@H]2CCCN2C(=O)[C@H](CC(=O)O)NC(=O)[C@H](C)N(C)C(=O)[C@H](Cc2ccc(O)cc2)NC(=O)CSCC(C(=O)NCC(N)=O)NC(=O)[C@H](CCC(=O)O)NC(=O)[C@H](CCCC)N(C)C1=O` (stereo partly drawn) [Example 10130] ({CH2CO}-Y[NMeA]DPH[Orn][Hyp]WSW[dNle][NMeNle]E[ξC]G-NH2; thioether N-14), 1 to 10 µM; as for `CCCC[C@H]1C(=O)N(C)[C@@H](CCCC)C(=O)N[C@@H](CCC(=O)O)C(=O)N[C@H](C(=O)NCC(N)=O)CSCC(=O)N[C@@H](Cc2ccc(O)cc2)C(=O)N(C)[C@@H](C)C(=O)N[C@@H](CC(N)=O)C(=O)N2CCCC2C(=O)N[C@@H](CO)C(=O)N[C@@H](CC(C)C)C(=O)N2C[C@H](O)C[C@H]2C(=O)N[C@@H](Cc2c[nH]c3ccccc23)C(=O)N[C@@H](CO)C(=O)N[C@@H](Cc2cn(CC(=O)O)c3ccccc23)C(=O)N1C` (stereo partly drawn) [Example 6250] ({CH2CO}-Y[NMeA]N[ξP]SL[Hyp]WS[Trp(1-CH2COOH)][NMeNle][NMeNle]ECG-NH2; thioether N-14), 0.001 to 0.0099 µM.
The same measure, in the same setting: the result for `CCCC[C@H]1C(=O)N(C)[C@@H](CCCC)C(=O)N[C@@H](C)C(=O)N[C@H](C(=O)NCC(N)=O)CSCC(=O)N[C@@H](Cc2ccc(O)cc2)C(=O)N(C)[C@@H](C)C(=O)N[C@@H](CC(N)=O)C(=O)N2CCC[C@H]2C(=O)N[C@@H](Cc2cnc[nH]2)C(=O)N[C@@H](CCC(N)=O)C(=O)N2CCOC[C@H]2C(=O)N[C@@H](Cc2c[nH]c3ccccc23)C(=O)N[C@@H](CO)C(=O)N[C@@H](Cc2c[nH]c3ccccc23)C(=O)N1C` [Example 1279] reads 0.01 to 0.0999 µM; that for `CCCC[C@H]1C(=O)N2CCC[C@@H]2C(=O)N[C@@H](CC(=O)O)C(=O)N[C@@H](C(C)C)C(=O)N(C)[C@@H](Cc2ccc(C)cc2)C(=O)N[C@@H](CCN)C(=O)N2CCC[C@@H]2C(=O)N[C@@H](Cc2c[nH]c3ccccc23)C(=O)N[C@@H](Cc2ccc(O)cc2)C(=O)N[C@@H](CC(C)C)C(=O)N[C@H](C(=O)NCC(N)=O)CSCC(=O)N[C@@H](Cc2ccc(F)cc2)C(=O)N(C)[C@@H](Cc2ccccc2)C(=O)N1C` [Example 10113] ({CH2CO}-[Phe(4-F)][NMeF][NMeNle][dP]DV[NMePhe(4-Me)][Dab][dP]WYLCG-NH2; thioether N-13), 0.1 to 0.99 µM.
Same read-out and setting: as for `CCCC[C@H]1C(=O)N2C[C@H](O)C[C@@H]2C(=O)N[C@@H](CC(=O)O)C(=O)N[C@@H](C(C)C)C(=O)N(C)[C@@H](Cc2ccccc2)C(=O)N[C@@H](CC(=O)O)C(=O)N2C[C@H](O)C[C@@H]2C(=O)N[C@@H](Cc2c[nH]c3ccccc23)C(=O)N[C@@H](Cc2ccc(O)cc2)C(=O)N[C@@H](CCC(=O)O)C(=O)N[C@H](C(=O)NCC(N)=O)CSCC(=O)N[C@@H](Cc2ccc(F)c(F)c2)C(=O)N(C)[C@@H](Cc2ccccc2)C(=O)N1C` [Example 9314] ({CH2CO}-[Phe(3,4-F2)][NMeF][NMeNle][d(cisHyp)]DV[NMeF]D[d(cisHyp)]WYECG-NH2; thioether N-13), the figure is 0.001 to 0.0099 µM.
Consider `CCCC[C@H]1C(=O)N2C[C@H](O)C[C@@H]2C(=O)N[C@@H](CC(=O)O)C(=O)N[C@@H](C(C)C)C(=O)N(C)[C@@H](Cc2ccccc2)C(=O)N[C@@H](CC(=O)O)C(=O)N2C[C@H](O)C[C@@H]2C(=O)N[C@@H](Cc2c[nH]c3ccccc23)C(=O)N[C@@H](Cc2ccc(O)cc2)C(=O)N[C@@H](CCCN)C(=O)N[C@H](C(=O)NCC(N)=O)CSCC(=O)N[C@@H](Cc2ccc(F)c(F)c2)C(=O)N(C)[C@@H](Cc2ccccc2)C(=O)N1C` [Example 9300] ({CH2CO}-[Phe(3,4-F2)][NMeF][NMeNle][d(cisHyp)]DV[NMeF]D[d(cisHyp)]WY[Orn]CG-NH2; thioether N-13), for which the IC50 was 0.001 to 0.0099 µM.
On the same count and under the same terms, the result for `CCCC[C@H]1C(=O)N(C)[C@@H](CCCC)C(=O)N[C@@H](CN)C(=O)N[C@H](C(=O)NCC(N)=O)CSCC(=O)N[C@@H](Cc2ccc(O)cc2)C(=O)N(C)[C@@H](C)C(=O)N[C@@H](CC(=O)O)C(=O)N2CCC[C@H]2C(=O)N[C@@H](CN)C(=O)N[C@@H](CCC(N)=O)C(=O)N2C[C@H](O)C[C@H]2C(=O)N[C@@H](Cc2c[nH]c3ccccc23)C(=O)N[C@@H](CO)C(=O)N[C@@H](Cc2cn(CC(=O)O)c3ccccc23)C(=O)N1C` [Example 5226] ({CH2CO}-Y[NMeA]DP[Dap]Q[Hyp]WS[Trp(1-CH2COOH)][NMeNle][NMeNle][Dap]CG-NH2; thioether N-14) reads 0.001 to 0.0099 µM.
With `CCCC[C@H]1C(=O)N(C)CC(=O)N[C@@H](CC(=O)O)C(=O)N[C@@H](C(C)C)C(=O)N(C)[C@@H](Cc2ccccc2)C(=O)N[C@@H](Cc2ccc(O)cc2)C(=O)N(C)CC(=O)N[C@@H](Cc2c[nH]c3ccc(Cl)cc23)C(=O)N[C@@H](Cc2ccc(O)cc2)C(=O)N[C@@H](CC(C)C)C(=O)N[C@H](C(=O)NCC(N)=O)CSCC(=O)N[C@@H](Cc2ccccc2)C(=O)N(C)[C@@H](Cc2ccccc2)C(=O)N1C` [Example 3236] ({CH2CO}-F[NMeF][NMeNle][Sar]DV[NMeF]Y[Sar][Trp(5-Cl)]YLCG-NH2; thioether N-13), the IC50 lay in the range of 0.01 to 0.0999 µM.

Staying with this experiment, now noted: PD-L1-His 10 nM, PD-1-Ig 20 nM; read-out: HTRF Human PD-L1/PD-1 Binding Assay IC50.
As for `CCCC[C@H]1C(=O)N(C)[C@@H](CCCC)C(=O)N[C@@H](C)C(=O)N[C@H](C(=O)NCC(N)=O)CSCC(=O)N[C@@H](Cc2ccc(O)cc2)C(=O)N2CCCC[C@H]2C(=O)N[C@@H](CC(N)=O)C(=O)N2CCC[C@H]2C(=O)N[C@@H](Cc2cnc[nH]2)C(=O)N[C@@H](CCC(N)=O)C(=O)N2CCNC[C@H]2C(=O)N[C@@H](Cc2c[nH]c3ccccc23)C(=O)N[C@@H](CO)C(=O)N[C@@H](Cc2c[nH]c3ccccc23)C(=O)N1C` [Example 1276], the IC50 is 0.468 µM.

Values taken from patent US10538555B2, “Macrocyclic inhibitors of the PD-1/PD-L1 and CD80(B7-1)/PD-L1 protein/protein interactions” (BRISTOL-MYERS SQUIBB COMPANY, priority 2014, dated 2020).
